Read-outs that look alike come from different tables or passages of the source. Values belong to the molecule of their own block, whether it stands above or below them.
Columns and labels:
[1] = cited from earlier work
[2] = parent compounds, literature; read-out: Ca^2+ dissociation constant of parent compounds; cited from earlier work
[3] = for Kd: read-out: Effective dissociation constant Kd for Ca^2+, pH 7.0-7.5, ionic strengths 0.1-0.15
[4] = Absorbance and fluorescence properties in the presence and absence of Ca2+; assay type: physicochemical
Experimental: FIG. 4. Excitation (A) and emission (B) spectra for fluo-3 at 22°±2° C. in buffers with free Ca^2+ values ranging from <1 nM to 58 microM. The titration was done starting with 3.5 ml of 100 mM KCl, 10 mM K-MOPS, 10 mM K2 H2 EGTA, 15 microM fluo-3, pH 7.03. The "O" Ca spectrum was recorded, then to reach n mM CaEGTA, (10-n) mM EGTA, n=1-10, aliquots of 3.5/(11-n) ml were iteratively discarded and replaced by equal volumes of 100 mM KCl, 10 mM K-MOPS, 10 mM K2 CaEGTA, 15 microM fluo-3, pH 7.0. After each iteration the pH (range 6.99 to 7.05) and spectra were recorded; each spectrum is labeled by the calculated free Ca^2+ in micromolar. The excitation and emission bandwidths were 1.9 nm and 4.6 nm respectively. All spectra have been normalized with respect to the peak of the 58 microM (n=10) curve. In A, emission was collected at 530 nm, and the excitation was corrected for lamp and monochromator characteristics using a rhodamine B quantum counter. In B, excitation was at 490 nm, and the emission spectrum is uncorrected for monochromator and detector sensitivity. The slightly low amplitude of the curve at 3.6 microM [Ca^2+ ] is probably due to a small error in resetting the excitation monochromator to 490 nm.
(§1) FIG. 6. The product of fluorescence quantum efficiency and extinction coefficient vs. free [Ca^2+ ] (note log axes for both) for quin-2, fura-2, indo-1, rhod-2, and fluo-3. All data are for room temperature, 0.1 M KCl, no added Mg^2+. […] The curve for fluo-3 used the data of Table I with extinction coefficients of 7.5×10^4 to 8.35×10^4 at 506 nm; the curve for rhod-2 assumed a Ca^2+ -independent extinction coefficient of 1×10^5 M^-1 cm^-1.
Examples of the synthetic routes than can be used to produce the new dyes of the present invention are outlined in FIGS. 2 and 3. Full descriptions of the reaction conditions are described below under the section entitled Compound Synthesis. Optical spectra were measured as described by Grynkiewicz, et al. (1985). (See ref. 9.) Quantum efficiencies of fluorescence were obtained (see ref. 10) by comparing the integral of the corrected emission spectrum of the test sample with that of a solution of rhodamine B in ethanol, quantum efficiency assumed to be 0.97 (see ref. 11), or fluorescein in 0.1 M NaOH, quantum efficiency 0.91 (see ref. 10). The concentration of the reference dye was adjusted to match the absorbance of the test sample at the wavelength of excitation.
The absorbance and fluorescence properties for the new indicators in the presence and absence of Ca^2+ are shown in Table I. The absorbance spectra were much as one would expect for rhodamine or fluorescein chromophores, though extinction coefficients (not shown) were often low in the dyes as initially isolated. Because fluo-3 appeared to be a very useful indicator compound, extra effort was expended in its purification. Eventually, quite respectable extinction coefficients were obtained, 7.9×10^4 and 8.3×10^4 M^-1 cm^-1 at 503 and 506 nm, respectively for free and Ca^2+ -bound fluo-3. Ca^2+ binding was expected to shift the absorbance maxima to longer wavelengths,since it would prevent the BAPTA amino nitrogen from donating electron density to the 9-position of the xanthene. Electron-withdrawal and donation to the central carbon of triphenylmethane dyes are known to shift absorbance peaks to longer and shorter wavelengths, respectively (see ref. 19). Indeed, Ca^2+ binding caused red shifts, but of very small magnitude, 1-3 nm, and with little change in peak height.
Fluo-3 has a visibly pinkish tinge because its chlorine atoms shift its spectra to wavelengths slightly longer than those of fluo-2, just as 2,7-dichlorofluorescein is bathochromically shifted from fluorescein. […] Thus the Ca^2+ complex of fluo-3 fluoresced 35- to 40-fold more brightly than the Ca^2+ -free dye (see FIG. 4). This degree of enhancement is the greatest yet reported for a fluorescent Ca^2+ indicator. […]

[5] = Mg2+ dissociation constant in Mg2+/EGTA buffers
Experimental: Free [Mg2+] was controlled by Mg^2+ /EGTA buffers assuming an apparent dissociation constant for the Mg^2+ /EGTA complex (including its monoprotonated form) of 6 mM at pH 7.60, 0.12 M ionic strength, 20°, as calculated from the data of Martell & Smith (see ref. 12).

[6] = Photochemical stability, xenon arc illumination of air-saturated solutions; assay type: physicochemical
Description: Fluo-3 was briefly checked for photochemical stability. […] Since the biological usability of fluorescein is well established, the photochemical resistance of fluo-3 would seem to be adequate if not outstanding.

[7] = Product of fluorescence quantum efficiency and extinction coefficient vs free [Ca2+] (FIG. 6); assay type: physicochemical
Description: as §1
Whereas fura-2 and indo-1 were clearly much more intensely fluorescent than quin-2, enabling measurements with much less added dye and Ca^2+ buffering, comparison of the brightness of the new dyes with that of fura-2 and indo-1 is more complex of the different operating wavelengths. The simplest measure of the intrinsic brightness of a fluorophore is the product of its emission quantum efficiency and its extinction coefficient at the appropriate excitation wavelength (see FIG. 6). At the present time, extinction coefficients are known only for fluo-3, though one may estimate the values for the other indicators from purified model xanthene dyes (9-10×10^4 M^-1 cm^31 1). For fluo-3, the quantum efficiency×extinction coefficient ranges from 3×10^3 to 1.5×10^4 M^-1 cm^-1 for Ca^2+ values from 10^-7 M up to saturation, slightly less than the corresponding values for fura-2 excited at 340 nm, 5×10^3 to 1.6× 10^4 M^-1 cm^-1 (see FIG. 6). However, it is easier to generate higher excitation intensities at longer wavelengths, and autofluorescence will be lower, so the actual concentrations of dye needed to overcome dark current and autofluorescence may be fairly similar for the two families. On the other hand, the relatively small separation between excitation and emission peaks of the new dyes makes more stringent demands on monochromators and filters to exclude scattered light.
The Ca^2+ affinities of the new dyes are two to ten-fold weaker than those of their UV-excited predecessors. […]

[8] = cited from earlier work; for Kd: room temperature, 0.1 M KCl, no added Mg^2+, read-out: Ca^2+ dissociation constant (Kd) used for FIG. 6

Structure (SMILES): CCN(CC)c1ccc2c(-c3ccccc3C(=O)O)c3ccc(=[N+](CC)CC)cc-3oc2c1 [rhodamine B]
Quantum efficiency of reference dye in ethanol ([1]; in ethanol): 0.97

Structure (SMILES): O=C(O)CN(CC(=O)O)c1ccccc1OCCOc1ccccc1N(CC(=O)O)CC(=O)O [BAPTA, 1,2-bis(2-amino-phenoxy)ethane N,N,N',N'-tetraacetic acid]
Kd [2]: 0.11 µM

Kd [3]: 0.7 µM
pH dependence of fluorescence: some pH dependence
Fluorescence maxima, emission, with excess Ca [4]: 521 nm
Fluorescence maxima, excitation, with excess Ca [4]: 499 nm
Fluorescence quantum efficiency, excess Ca [4]: .014
Fluorescence quantum efficiency, zero Ca [4]: .0042
Structure (SMILES): Cc1ccc(N(CC(=O)O)CC(=O)O)c(OCCOc2cc(-c3c4ccc(=O)cc-4oc4cc(O)ccc34)c(O)cc2N(CC(=O)O)CC(=O)O)c1 [fluo-1, 9-(6-hydroxy-4-bis(carboxymethyl)amino-3-(2-(2-bis(carboxymethyl)amino-5-methylphenoxy)ethoxy)phenyl)-6-hydroxy-3H-xanthen-3-one]
Lowering of Ca^2+ affinity by hydroxy group vs unsubstituted rhod-2 and fluo-2 ([3]; vs rhod-2 and fluo-2): more than two-fold
Fluorescence ratio, excess vs. zero Ca [4]: 3.3

Structure (SMILES): O=C1OC2(c3ccc(O)cc3Oc3cc(O)ccc32)c2ccccc21 [fluorescein]
Quantum efficiency of reference dye in 0.1 M NaOH ([1]; 0.1 M NaOH): 0.91

Kd [3]: 1 µM
Fluorescence maxima, emission, with excess Ca [4]: 576 nm
Fluorescence maxima, excitation, with excess Ca [4]: 553 nm
Fluorescence quantum efficiency, excess Ca [4]: .102
Fluorescence quantum efficiency, zero Ca [4]: .03
Structure (SMILES): Cc1ccc(N(CC(=O)O)CC(=O)O)c(OCCOc2cc(-c3c4ccc(=[N+](C)C)cc-4oc4cc(N(C)C)ccc34)ccc2N(CC(=O)O)CC(=O)O)c1 [rhod-2]
Fluorescence ratio, excess vs. zero Ca [4]: 3.4

Fluorescence enhancement by Mg^2+ binding ([5]; Mg^2+ binding): about 1.4 fold
Kd ([5]; read-out: Mg^2+ dissociation constant, 25°, 0.1-0.15 M ionic strength): 9000 µM
Kd [3]: 0.45 µM
Amino pKa, independent rough confirmation from intermediate [Ca^2+] curves (100 mm kcl, tris-mops): about 6.2
pKa of amino nitrogen (100 mm kcl, tris-mops): about 6.2
pKa of chromophore (absorbance spectrum or fluorescence amplitude of Ca^2+-complex) (100 mm kcl, tris-mops): 4.5-4.6
Increase of fluorescence of Ca^2+-free dye, pH 8 to pH 5 (Ca^2+-free, maximal): ≤ 3 fold
Photobleaching rate, Ca^2+ complex ([6]; Ca^2+ complex): bleached about half as quickly
Extinction coefficient, free dye ([4]; 503 nm, free): 79000 M⁻¹ cm⁻¹
Extinction coefficient, Ca^2+-bound dye ([4]; 506 nm, Ca^2+-bound): 83000 M⁻¹ cm⁻¹
Fluorescence maxima, emission, with excess Ca [4]: 526 nm
Fluorescence maxima, excitation, with excess Ca [4]: 506 nm
Fluorescence quantum efficiency, excess Ca [4]: .183
Fluorescence quantum efficiency, zero Ca [4]: .0051
Structure (SMILES): Cc1ccc(N(CC(=O)O)CC(=O)O)c(OCCOc2cc(-c3c4cc(Cl)c(=O)cc-4oc4cc(O)c(Cl)cc34)ccc2N(CC(=O)O)CC(=O)O)c1 [fluo-3, 9-(4-bis(carboxymethyl)amino-3-(2-(2-bis(carboxymethyl)amino-5-methylphenoxy)ethoxy)phenyl)-2,7-dichloro-6-hydroxy-3 H-xanthen-3-one]
Effect of Mg^2+ binding on chelator fluorescence [5]: relatively little effect
Effect of added chlorines on Ca^2+ affinity [3]: very little effect
Effectiveness of intermediate Ca^2+ at enhancing fluorescence at pH 6.1-6.2 vs pH ~8 (pH about 6.1-6.2 vs pH ~8): about half as effective
Photobleaching rate, Ca^2+-free ([6]; Ca^2+-free): bleached at about the same rate as ordinary fluorescein anion
Fluorescence enhancement, Ca^2+ complex vs Ca^2+-free dye ([4]; Ca^2+ complex vs free dye): 40 fold
Fluorescence ratio, excess vs. zero Ca [4]: 36-40
[Ca^2+] giving double the fluorescence at zero [Ca^2+] [7]: 11 nM
Conversion to Ca^2+ complex at 11 nM [Ca^2+] ([7]; 11 nM [Ca^2+]): 2.5%
Brightness of Ca^2+ complex relative to free dye (in words) ([7]; Ca^2+ complex vs free dye): forty-fold brighter

Structure (SMILES): O=c1ccc2c(-c3ccccc3)c3ccc(O)cc3oc-2c1 [9-phenylfluorone]
Quantum efficiency of model compound [1]: 0.21

Structure (SMILES): COc1cc(N(CC(=O)O)CC(=O)O)c2nc(COc3cc(C)ccc3N(CC(=O)O)CC(=O)O)ccc2c1 [quin-2, 2-[[2-[bis(carboxymethyl)amino]-5-methylphenoxy]-6-methoxy-8-bis(carboxymethyl)amino]quinolline]
Extinction coefficient at 339 nm ([8]; 339 nm, independent of Ca^2+): 4600 M⁻¹ cm⁻¹
Kd [8]: 0.078 µM

Kd [3]: 0.37 µM
Fluorescence quenching on titration from pH 7.7 to 4.1 (absence of Ca^2+): almost completely quenched
Ratio between the brightness of the deprotonated and the protonated species (absence of Ca^2+): 67
Fluorescence maxima, emission, with excess Ca [4]: 518 nm
Fluorescence maxima, excitation, with excess Ca [4]: 493 nm
Fluorescence quantum efficiency, excess Ca [4]: .125
Fluorescence quantum efficiency, zero Ca [4]: .004
Structure (SMILES): Cc1ccc(N(CC(=O)O)CC(=O)O)c(OCCOc2cc(-c3c4ccc(=O)cc-4oc4cc(O)ccc34)ccc2N(CC(=O)O)CC(=O)O)c1 [fluo-2, 9-(4-bis(carboxymethyl)amino-3-(2-(2-bis(carboxymethyl)amino-5-methylphenoxy)ethoxy)phenyl)-6-hydroxy-3H-xanthen-3-one]
Fluorescence ratio, excess vs. zero Ca [4]: 31

Structure (SMILES): Cc1ccc(N(CC(=O)O)CC(=O)O)c(OCCOc2cc(-c3cc4ccc(C(=O)O)cc4[nH]3)ccc2N(CC(=O)O)CC(=O)O)c1 [indo-1]
Kd [8]: 0.25 µM

Source: patent US5049673A, “Fluorescent indicator dyes for calcium working at long wavelengths” (The Regents of the University of California, priority 1987, dated 1991)
